Experimental data: patent US9708311B2, “Benzimidazole derivatives as EP4 antagonists” (BAYER PHARMA AKTIENGESELLSCHAFT, priority 2012, dated 2017)

Molecular target: human EP4 receptor (Homo sapiens (Human), UniProt P35408)
Test: Test for antagonism of the human EP4 receptor signal (cAMP HTRF)
Assay type: cell-based
Details: cells expressing hEP4, PGE2 at EC80 (0.4 nM), cAMP TR-FRET; read-out: Antagonism hEP4 IC50
From the text: The binding of the agonist prostaglandin E2 (PGE2) to the EP4 subtype of human hPGE2-R (hEP4-R) induces the activation of membrane-bound adenylate cyclases and thus the formation of cAMP. In the presence of the phosphodiesterase inhibitor IBMX, this cAMP accumulates intracellularly and is employed in a competitive detection procedure after cell lysis. In this procedure, it competes with a fluorescence-labelled cAMP (cAMP-d2) for binding to an Eu cryptate-labelled anti-cAMP antibody. In the absence of cellular cAMP, a complex is formed between the Eu cryptate-labelled anti-cAMP antibody and the cAMP-d2 molecule, which after excitation at 337 nm makes possible an energy transfer based on FRET (fluorescence resonance energy transfer) to the cAMP-d2 tracer and leads to a long-lasting fluorescence signal (emission at 665 and 620 nm). This signal is time-resolved, i.e. measured in a suitable measuring apparatus after decay of the background fluorescence (time resolved; TR-FRET). The wave ratio determination (emission 665 nm/emission 620 nm*10000) moreover makes it possible to standardize individual measurement differences in the added amounts of the detection reagents.
By means of prostaglandin E2 administration and increase in the intracellular cAMP, a lowering of the FRET signal occurs, which in the case of an antagonistic substance action increases again.
A further 20 min at room temperature later, the cell lysate is measured according to the manufacturer's instructions in a TR-FRET-suitable measuring apparatus (compare cAMP HTRF assay kit: Cisbio International 62AM6PEJ high range)

human EP4 receptor, sequence (P35408 whole entry): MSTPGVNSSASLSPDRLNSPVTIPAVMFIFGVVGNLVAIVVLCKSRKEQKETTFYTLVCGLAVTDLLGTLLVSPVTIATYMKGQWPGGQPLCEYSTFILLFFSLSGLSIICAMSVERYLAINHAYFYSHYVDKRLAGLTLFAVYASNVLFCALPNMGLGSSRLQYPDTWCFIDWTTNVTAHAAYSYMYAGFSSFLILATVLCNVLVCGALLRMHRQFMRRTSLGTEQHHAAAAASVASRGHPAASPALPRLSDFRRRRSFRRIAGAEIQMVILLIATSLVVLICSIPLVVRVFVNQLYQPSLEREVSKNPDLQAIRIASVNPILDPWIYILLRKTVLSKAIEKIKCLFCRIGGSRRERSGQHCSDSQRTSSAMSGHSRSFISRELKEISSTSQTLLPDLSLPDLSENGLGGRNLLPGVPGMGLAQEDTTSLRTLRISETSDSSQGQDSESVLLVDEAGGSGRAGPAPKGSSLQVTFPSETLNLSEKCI

IC50 | Structure (SMILES)
186 nM | CCn1c2ccccc2c2cc(-c3nc4cc(C(=O)NS(=O)(=O)Cc5ccc(C(F)(F)F)cc5)ccc4n3CCOC)ccc21 [Example 62, 2-(9-Ethyl-9H-carbazol-3-yl)-1-(2-methoxyethyl)-N-{[4-(trifluoromethyl)benzyl]sulphonyl}-1H-benzimidazole-5-carboxamide]
16.5 nM | C=CCn1c2ccccc2c2cc(-c3nc4cc(C(=O)O)ccc4n3CCOC)ccc21 [Example 96, 2-(9-Allyl-9H-carbazol-3-yl)-1-(2-methoxyethyl)-1H-benzimidazole-5-carboxylic acid]
2100 nM | C=CCn1c(-c2ccc3c(c2)c2ccccc2n3CC)nc2cc(C(=O)NC)ccc21 [Example 88, 1-Allyl-2-(9-ethyl-9H-carbazol-3-yl)-N-methyl-1H-benzimidazole-5-carboxamide]
27.4 nM | CCn1c2ccc(OC)cc2c2cc(-c3nc4cc(C(=O)O)ccc4n3CCOC)ccc21 [Example 32, 2-(9-Ethyl-6-methoxy-9H-carbazol-3-yl)-1-(2-methoxyethyl)-1H-benzimidazole-5-carboxylic acid]
35.3 nM | CCn1c2ccccc2c2cc(-c3nc4cc(C(=O)NS(=O)(=O)c5ccccc5C)ccc4n3CCOC)ccc21 [Example 53, 2-(9-Ethyl-9H-carbazol-3-yl)-1-(2-methoxyethyl)-N-[(2-methylphenyl)sulphonyl]-1H-benzimidazole-5-carboxamide]
1430 nM | CCn1c2ccccc2c2cc(-c3nc4c(Cl)c(C(=O)OC)ccc4n3CC3CC3)ccc21 [Example 7, Methyl 4-chloro-1-(cyclopropylmethyl)-2-(9-ethyl-9H-carbazol-3-yl)-1H-benzimidazole-5-carboxylate]
13.4 nM | CCn1c2ccccc2c2cc(-c3nc4cc(-c5nnn[nH]5)ccc4n3CCOC)ccc21 [Example 45, 9-Ethyl-3-[1-(2-methoxyethyl)-5-(1H-tetrazol-5-yl)-1H-benzimidazol-2-yl]-9H-carbazole]
65.7 nM | CCn1c2ccccc2c2cc(-c3nc4cc(C(=O)N5CCCC5)ccc4n3CC3CC3)ccc21 [Example 22, [1-(Cyclopropylmethyl)-2-(9-ethyl-9H-carbazol-3-yl)-1H-benzimidazol-5-yl](pyrrolidin-1-yl)methanone]
16.9 nM | CCn1c2ccccc2c2cc(-c3nc4cc(C(=O)NS(=O)(=O)CCOC)ccc4n3CCOC)ccc21 [Example 59, 2-(9-Ethyl-9H-carbazol-3-yl)-1-(2-methoxyethyl)-N-[(2-methoxyethyl)sulphonyl]-1H-benzimidazole-5-carboxamide]
71.2 nM | CCn1c2ccccc2c2cc(-c3nc4c(C)c(C(=O)O)ccc4n3CC3CC3)ccc21 [Example 9, 1-(Cyclopropylmethyl)-2-(9-ethyl-9H-carbazol-3-yl)-4-methyl-1H-benzimidazole-5-carboxylic acid]
54.6 nM | CCn1c2ccc(OC)cc2c2cc(-c3nc4cc(C(=O)O)ccc4n3CC3CC3)ccc21 [Example 43, 1-(Cyclopropylmethyl)-2-(9-ethyl-6-methoxy-9H-carbazol-3-yl)-1H-benzimidazole-5-carboxylic acid]
39.4 nM | Cn1c2ccccc2c2cc(-c3nc4cc(C(=O)O)ccc4n3CC3CC3)ccc21 [Example 34, 1-(Cyclopropylmethyl)-2-(9-methyl-9H-carbazol-3-yl)-1H-benzimidazole-5-carboxylic acid]
742 nM | CCn1c2ccccc2c2cc(-c3nc4cc(C(=O)O)ccc4n3CCN3CCCC3)ccc21 [Example 38, 2-(9-Ethyl-9H-carbazol-3-yl)-1-[2-(pyrrolidin-1-yl)ethyl]-1H-benzimidazole-5-carboxylic acid]
34.6 nM | CCn1c2ccccc2c2cc(-c3nc4cc(C(=O)O)c(F)cc4n3CC3CC3)ccc21 [Example 112, 1-(Cyclopropylmethyl)-2-(9-ethyl-9H-carbazol-3-yl)-6-fluoro-1H-benzimidazole-5-carboxylic acid]
219 nM | CCn1c2ccccc2c2cc(-c3nc4cc(C(=O)N5CCOCC5)ccc4n3CC3CC3)ccc21 [Example 29, [1-(Cyclopropylmethyl)-2-(9-ethyl-9H-carbazol-3-yl)-1H-benzimidazol-5-yl](morpholin-4-yl)methanone]
257 nM | O=C(O)c1ccc2c(c1)nc(-c1ccc3c(c1)c1ccccc1n3CC1CCC1)n2CC1CC1 [Example 125, 2-[9-(Cyclobutylmethyl)-9H-carbazol-3-yl]-1-(cyclopropylmethyl)-1H-benzimidazole-5-carboxylic acid]

IC50 | Structure (SMILES)
733 nM | CCn1c2ccccc2c2cc(-c3nc4cc(C(=O)O)ccc4n3C(C)C)ccc21 [Example 93, 2-(9-Ethyl-9H-carbazol-3-yl)-1-isopropyl-1H-benzimidazole-5-carboxylic acid]
15.3 nM | CCn1c2ccc(C)cc2c2cc(-c3nc4c(C)c(C(=O)O)ccc4n3CCOC)ccc21 [Example 141, 2-(9-Ethyl-6-methyl-9H-carbazol-3-yl)-1-(2-methoxyethyl)-4-methyl-1H-benzimidazole-5-carboxylic acid]
28.6 nM | CCn1c2ccccc2c2cc(-c3nc4cc(C(=O)NS(=O)(=O)C5CC5)ccc4n3CCOC)ccc21 [Example 16, N-(Cyclopropylsulphonyl)-2-(9-ethyl-9H-carbazol-3-yl)-1-(2-methoxyethyl)-1H-benzimidazole-5-carboxamide]
19.8 nM | CCn1c2ccccc2c2cc(-c3nc4cc(C(=O)NS(=O)(=O)Cc5c(Cl)cccc5Cl)ccc4n3CCOC)ccc21 [Example 60, N-[(2,6-Dichlorbenzyl)sulphonyl]-2-(9-ethyl-9H-carbazol-3-yl)-1-(2-methoxyethyl)-1H-benzimidazole-5-carboxamide]
21.4 nM | CCn1c2ccccc2c2cc(-c3nc4cc(C(=O)NS(=O)(=O)c5ccc(C)cc5)ccc4n3CCN(C)C)ccc21 [Example 75, 1-[2-(Dimethylamino)ethyl]-2-(9-ethyl-9H-carbazol-3-yl)-N-[(4-methylphenyl)sulphonyl]-1H-benzimidazole-5-carboxamide]
167 nM | CCn1c2ccccc2c2cc(-c3nc4cc(C(=O)NS(=O)(=O)CCc5ccccc5Cl)ccc4n3CCOC)ccc21 [Example 61, N-{[2-(2-Chlorophenyl)ethyl]sulphonyl}-2-(9-ethyl-9H-carbazol-3-yl)-1-(2-methoxyethyl)-1H-benzimidazole-5-carboxamide]
14.7 nM | CCn1c2ccccc2c2cc(-c3nc4cc(C(=O)NS(=O)(=O)c5cccc(Cl)c5)ccc4n3CCOC)ccc21 [Example 17, N-[(3-Chlorophenyl)sulphonyl]-2-(9-ethyl-9H-carbazol-3-yl)-1-(2-methoxyethyl)-1H-benzimidazole-5-carboxamide]
612 nM | CCn1c2ccccc2c2cc(-c3nc4cc(C(=O)O)c(C)cc4n3CCOC)ccc21 [Example 111, 2-(9-Ethyl-9H-carbazol-3-yl)-1-(2-methoxyethyl)-6-methyl-1H-benzimidazole-5-carboxylic acid]
117 nM | CCn1c2ccccc2c2cc(-c3nc4cc(C(=O)NS(=O)(=O)Cc5ccccc5)ccc4n3CCOC)ccc21 [Example 55, N-(Benzylsulphonyl)-2-(9-ethyl-9H-carbazol-3-yl)-1-(2-methoxyethyl)-1H-benzimidazole-5-carboxamide]
59.5 nM | CCn1c2ccccc2c2cc(-c3nc4cc(C(=O)O)c(F)cc4n3CCOC)ccc21 [Example 113, 2-(9-Ethyl-9H-carbazol-3-yl)-6-fluoro-1-(2-methoxyethyl)-1H-benzimidazole-5-carboxylic acid]
118 nM | CCn1c2ccccc2c2cc(-c3nc4cc(-c5n[nH]c(=O)o5)ccc4n3CCN(C)C)ccc21 [Example 126, 5-{1-[2-(Dimethylamino)ethyl]-2-(9-ethyl-9H-carbazol-3-yl)-1H-benzimidazol-5-yl}-1,3,4-oxadiazol-2(3H)-one]
33.6 nM | CCn1c2ccccc2c2cc(-c3nc4cc(C(=O)NS(=O)(=O)c5ccccc5)ccc4n3CCOC)ccc21 [Example 50, 2-(9-Ethyl-9H-carbazol-3-yl)-1-(2-methoxyethyl)-N-(phenylsulphonyl)-1H-benzimidazole-5-carboxamide]
95.5 nM | CCn1c2ccccc2c2cc(-c3nc4cc(C(=O)NS(=O)(=O)c5ccc6ccccc6c5)ccc4n3CCOC)ccc21 [Example 51, 2-(9-Ethyl-9H-carbazol-3-yl)-1-(2-methoxyethyl)-N-(2-naphthylsulphonyl)-1H-benzimidazole-5-carboxamide]
325 nM | CCn1c2ccccc2c2cc(-c3nc4cc(C(=O)O)ccc4n3CCS(C)(=O)=O)ccc21 [Example 136, 2-(9-Ethyl-9H-carbazol-3-yl)-1-[2-(methylsulphonyl)ethyl]-1H-benzimidazole-5-carboxylic acid]
25.6 nM | CCn1c2ccccc2c2cc(-c3nc4cc(C(=O)NS(=O)(=O)c5cccc(C)c5)ccc4n3CCOC)ccc21 [Example 47, 2-(9-Ethyl-9H-carbazol-3-yl)-1-(2-methoxyethyl)-N-[(3-methylphenyl)sulphonyl]-1H-benzimidazole-5-carboxamide]
12.4 nM | CCn1c2ccccc2c2cc(-c3nc4cc(-c5noc(=O)[nH]5)ccc4n3CCOC)ccc21 [Example 46, 3-[2-(9-Ethyl-9H-carbazol-3-yl)-1-(2-methoxyethyl)-1H-benzimidazol-5-yl]-1,2,4-oxadiazol-5(4H)-one]
